In ChEMBL document CHEMBL3430850, “MMV Malaria Box gametocyte standard membrane feeding assay screening”:
pIC50: −log10 of the molar value.

Experiment: MMV: Gametocytes from P. falciparum reporter strain NF54-deltaPf47-5'hsp70-GFP::Luc were exposed to serial dilutions of compounds for 24 hours. Subsequently, compounds were washed out and gametocytes were fed to Anopheles stephensi mosquitoes. Three compounds were tested at six dilutions in one experimental run. All conditions were tested in duplicate in two different experimental runs. Each run included duplicate feeders for vehicle (0.1% DMSO) and positive (10 uM dihydroartemisinin) controls. Eight days post-feeding, oocyst densities were determined by assessment of luminescence signals in homogenized mosquitoes. Up to 24 mosquitoes were analysed per feeder. Luminescence data from individual mosquitoes were normalized against the average signals from the vehicle control feeds that were included in each run. IC50 values were determined by fitting a four-parameter logistic regression model using maximum likelihood optimization to find the best fit.
Type: functional, Plasmodium falciparum
Conditions: not given; call rule not given here

For `CC1CN(C(=O)c2sc3ccccc3c2Cl)CC(C)O1` (stereo not drawn), the IC50 was “Not active”.
With `OC(CNC1CCCCC1)Cn1c2ccc(I)cc2c2cc(I)ccc21` (stereo not drawn) the IC50 was “Not active”.

Same assay, conditions: read-out: IC50

In order of rising pIC50:
1. COC(=O)c1ccc(C2C3=C(O)CC(c4ccc(F)cc4)CC3=Nc3ccccc3N2C(=O)c2ccccc2)cc1 (stereo not drawn)  5.07
2. COc1ccc(-c2c(C)nn3c(N)c(C#N)cnc23)cc1OC  5.44
3. CCOC(=O)C1=C(C)N=c2sc(=Cc3cc(Cl)ccc3O)c(=O)n2C1c1ccc(OC)cc1 (stereo not drawn)  5.49
4. OC1CCCCC1C1(NC(=S)Nc2ccccc2)CCCCC1 (stereo not drawn)  5.76
5. CCN(CC)CCn1c(=N)n(CC(O)c2ccc(Cl)c(Cl)c2)c2ccccc21 (stereo not drawn)  5.78
6. CC1=C(CC(=O)c2cccc([N+](=O)[O-])c2)C(=O)c2ccccc2C1=O  5.85
7. Cc1sc2ncnc(Sc3nc4ccccc4[nH]3)c2c1C  5.89
8. Cc1ccc(-c2cc3c(nn2)-c2ccccc2C3=O)cc1  5.90
9. CN(C)CCCNc1c2ccccc2nc2ccccc12  5.93
10. O=C(NC1CCN(Cc2ccccc2)CC1)c1cc(C(=O)NC2CCN(Cc3ccccc3)CC2)cc(C(=O)NC2CCN(Cc3ccccc3)CC2)c1  5.93
11. CC(C)(C)c1ccc2c(c1)CN(Cc1ccc(Cl)cc1)CO2  6.23
12. CCOC(=O)c1cnc2ccc(CC)cc2c1O  6.96
13. CCOC(=O)c1cn(CC)c2cc(N3CCCCC3)c(F)cc2c1=O  7.02
14. Clc1cc(Br)ccc1-c1ccc(CNCC2CCNCC2)o1  7.13
15. COc1ccc(C2c3ccc4ccccc4c3Oc3ncn(CCCN(C)C)c(=N)c32)cc1 (stereo not drawn)  7.23
16. CN(C)c1ccc(C(O)(c2ccc(N(C)C)cc2)c2ccc(N(C)C)cc2)cc1 [METHYLROSANILINE]  7.41
